According to ChEMBL document CHEMBL1201862, “PubChem BioAssay data set” (2004):
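The compound was tested at five concentrations on cells cultured in 96-well plates, with a 48-hour exposure period. The concentration for 50% growth inhibition is given as GI50.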 The source made the active and inactive calls. No stated cut-off is given here; in the data, active = GI50 up to about 1.1 µM and inactive = higher.

What was measured:
Assay in all cases: inhibition of tumour cell growth, NCI panel, 48 h
CCRF-CEM = tested on: CCRF-CEM
DLD-1 = tested on: DLD-1
DMS-114 = tested on: DMS-114
HOP-62 = tested on: HOP-62
HOP-92 = tested on: HOP-92
K562 = tested on: K562
KM-20L2 = tested on: KM-20L2
MCF7 = tested on: MCF7
Malme-3M = tested on: Malme-3M
OVCAR-3 = tested on: OVCAR-3
OVCAR-4 = tested on: OVCAR-4
OVCAR-5 = tested on: OVCAR-5
SNB-78 = tested on: SNB-78
UACC-257 = tested on: UACC-257

Measured: GI50

C=C1C(=O)O[C@H]2C1[C@H](OC(=O)/C(C)=C\COC(C)=O)C[C@]1(CO1)[C@@H]1[C@H](O)[C@H]3O[C@@]3(C)[C@@H]12 (some centres undefined)
inactive: CCRF-CEM 10.5 µM | DLD-1 12.2 µM | DMS-114 19.4 µM | HOP-62 > 100 µM | HOP-92 15.2 µM | K562 15.2 µM | KM-20L2 30.5 µM | MCF7 11.5 µM | Malme-3M 20.7 µM | OVCAR-3 18.3 µM | OVCAR-4 27 µM | OVCAR-5 > 71.6 µM | SNB-78 25.9 µM | UACC-257 16.8 µM

C=C1C(=O)OC2/C=C(\C)CC(O)/C=C(/CO)CC(OC(=O)/C(C)=C/C)C12 (centres undefined)
inactive: CCRF-CEM 13.9 µM | DLD-1 26.8 µM | DMS-114 14.3 µM | HOP-62 95.3 µM | HOP-92 30.9 µM | K562 18 µM | KM-20L2 71.1 µM | MCF7 21.7 µM | Malme-3M 18.9 µM | OVCAR-3 29.9 µM | OVCAR-4 117 µM | OVCAR-5 147 µM | SNB-78 49.4 µM | UACC-257 45.6 µM

N#CC(c1nc2ccccc2nc1Cl)S(=O)(=O)c1ccccc1 (centres undefined)
inactive: CCRF-CEM 30.1 µM | DLD-1 > 100 µM | DMS-114 > 100 µM | HOP-62 > 100 µM | HOP-92 27.4 µM | K562 34.3 µM | KM-20L2 > 100 µM | Malme-3M 56.9 µM | OVCAR-3 > 100 µM | OVCAR-4 53.3 µM | OVCAR-5 > 100 µM | SNB-78 25.8 µM | UACC-257 > 100 µM

COC(=O)C(C#N)C1NC(=O)c2ccccc21 (centres undefined)
inactive: CCRF-CEM > 100 µM | DLD-1 > 100 µM | DMS-114 > 100 µM | HOP-62 > 100 µM | HOP-92 > 100 µM | K562 > 100 µM | KM-20L2 > 100 µM | Malme-3M > 100 µM | OVCAR-3 > 100 µM | OVCAR-4 > 100 µM | OVCAR-5 > 100 µM | SNB-78 > 100 µM | UACC-257 > 100 µM
